Values after ≈ are worked out from the molar mass of the structure shown.
Experiments:
Test in all cases: antimicrobial activity, broth dilution method
Assay type in all cases: cell-based
[1] = test system: Bacillus cereus ATCC 9634; details: broth dilution; for MIC: Bacillus cereus, ATCC9634, Bacillus cereus ATCC 9634, read-out: minimum inhibitory concentration (MIC)
Method: (§1) Antimicrobial activity of the new antibiotics according to the present invention was measured on various pathogenic microorganisms by the broth dilution mehtod. Tab. […] The new antibiotics show a similar antimicrobial spectrum to that of tylosin as shown in Tab. 4. All the compounds have an excellent antimicrobial activity mainly on gram-positive bacteria. […] Test microorganisms with an asterisk mark (*) in Tab. 4 are all drug-resistant strains that were clinically isolated. More in detail, Staphylococcus aureus MS-8710 is resistant to tylosin, penicillin, tetracycline, erythromycin and leucomycin. Staphylococcus aureus MS-9931 is resistant to tylosin, penicillin, erythromycin, tetracycline, leucomycin, spiramycin and josamycin. And also Streptococcus piogenes is resistant to tylosin, erythromycin, oleandomycin and leucomycin.

Sarcina lutea ATCC 9341 = details: for MIC: Micrococcus luteus, ATCC9341, Sarcina lutea ATCC 9341, read-out: minimum inhibitory concentration (MIC)
Method: as §1

[2] = test system: Staphylococcus aureus FDA-209P; details: Staphylococcus aureus FDA-209P, broth dilution; for MIC: Staphylococcus aureus, FDA209P, read-out: minimum inhibitory concentration (MIC)
Method: as §1

[3] = test system: Staphylococcus aureus MS-8710; details: for MIC: Staphylococcus aureus, MS8710, Staphylococcus aureus MS-8710, drug-resistant clinical isolate, read-out: minimum inhibitory concentration (MIC)
Method: as §1

[4] = test system: Staphylococcus aureus MS-9931; details: Staphylococcus aureus MS-9931, drug-resistant clinical isolate; for MIC: MS9931, read-out: minimum inhibitory concentration (MIC)
Method: as §1

[5] = test system: Staphylococcus aureus MS-9937; details: Staphylococcus aureus MS-9937, drug-resistant clinical isolate; for MIC: MS9937, read-out: minimum inhibitory concentration (MIC)
Method: as §1

[6] = test system: Staphylococcus aureus SMITH; details: Staphylococcus aureus SMITH, broth dilution; for MIC: Staphylococcus aureus, read-out: minimum inhibitory concentration (MIC)
Method: as §1

[7] = test system: Streptococcus pyogenes MH-771; details: for MIC: Streptococcus pyogenes, MH771, Streptococcus pyogenes MH-771, drug-resistant clinical isolate, read-out: minimum inhibitory concentration (MIC)
Method: as §1

Row | Compound | MIC [1] [µg/mL] | MIC (Sarcina lutea ATCC 9341) [µg/mL] | MIC [2] [µg/mL] | MIC [3] [µg/mL] | MIC [4] [µg/mL] | MIC [5] [µg/mL] | MIC [6] [µg/mL] | MIC [7] [µg/mL] | minimum inhibitory concentration (MIC) ([1]; Bacillus cereus ATCC 9634) [µg/mL] | minimum inhibitory concentration (MIC) (Sarcina lutea ATCC 9341; Sarcina lutea ATCC 9341) [µg/mL] | minimum inhibitory concentration (MIC) [2] [µg/mL] | minimum inhibitory concentration (MIC) ([3]; Staphylococcus aureus MS-8710, drug-resistant clinical isolate) [µg/mL] | minimum inhibitory concentration (MIC) [4] [µg/mL] | minimum inhibitory concentration (MIC) [5] [µg/mL] | minimum inhibitory concentration (MIC) [6] [µg/mL] | minimum inhibitory concentration (MIC) ([7]; Streptococcus pyogenes MH-771, drug-resistant clinical isolate) [µg/mL]
1 | CCCC(C)C(=O)OC1C(C)OC(OC2C(C)OC(OC3C(CC=O)CC(C)C(=O)C=CC(C)=CC(COC4OC(C)C(O)C(OC)C4OC)C(CC)OC(=O)CC(O)C3C)C(O)C2N(C)C)CC1(C)O (stereo not drawn) [Compound 12, 4"-α-methyl-n-valeryltylosin] | 0.78 (≈ 0.769 µM) | 0.39 (≈ 0.385 µM) | 1.56 (≈ 1.54 µM) | 25 (≈ 24.6 µM) | 100 (≈ 98.6 µM) | 25 (≈ 24.6 µM) | 1.56 (≈ 1.54 µM) | 6.25 (≈ 6.16 µM) | – | – | – | – | – | – | – | –
2 | CCC1OC(=O)CC(OC(C)=O)C(C)C(OC2OC(C)C(OC3CC(C)(O)C(OC(=O)C(C)c4ccccc4)C(C)O3)C(N(C)C)C2O)C(CC=O)CC(C)C(=O)C=CC(C)=CC1COC1OC(C)C(O)C(OC)C1OC (stereo not drawn) [Compound 15, 3-acetyl-4"-α-phenylpropionyltylosin] | 0.78 (≈ 0.715 µM) | 0.19 (≈ 0.174 µM) | 0.39 (≈ 0.358 µM) | 25 (≈ 22.9 µM) | 25 (≈ 22.9 µM) | 25 (≈ 22.9 µM) | 0.39 (≈ 0.358 µM) | 12.5 (≈ 11.5 µM) | – | – | – | – | – | – | – | –
3 | CCC1OC(=O)CC(OC(C)=O)C(C)C(OC2OC(C)C(OC3CC(C)(O)C(OC(=O)C(OC(C)=O)c4ccc(OC(C)=O)cc4)C(C)O3)C(N(C)C)C2O)C(CC=O)CC(C)C(=O)C=CC(C)=CC1COC1OC(C)C(O)C(OC)C1OC (stereo not drawn) [Compound 21, 3-acetyl-4"-[α-acetoxy-(4-acetoxyphenyl)acetyl]tylosin] | 0.78 (≈ 0.654 µM) | 0.39 (≈ 0.327 µM) | 0.78 (≈ 0.654 µM) | 50 (≈ 41.9 µM) | 50 (≈ 41.9 µM) | 50 (≈ 41.9 µM) | 0.78 (≈ 0.654 µM) | 12.5 (≈ 10.5 µM) | – | – | – | – | – | – | – | –
4 | CCOC(=O)OC1C(C)OC(OCC2C=C(C)C=CC(=O)C(C)CC(CC=O)C(OC3OC(C)C(OC4CC(C)(O)C(O)C(C)O4)C(N(C)C)C3OC(C)=O)C(C)C(OC(C)=O)CC(=O)OC2CC)C(OC)C1OC (centres unmarked) [Compound 6, 3,2'-diacetyl-4'"-carboethoxytylosin] | 0.78 (≈ 0.727 µM) | 0.39 (≈ 0.364 µM) | 0.78 (≈ 0.727 µM) | 100 (≈ 93.3 µM) | 100 (≈ 93.3 µM) | 100 (≈ 93.3 µM) | 0.78 (≈ 0.727 µM) | 100 (≈ 93.3 µM) | – | – | – | – | – | – | – | –
5 | CCC1OC(=O)CC(O)C(C)C(OC2OC(C)C(OC3CC(C)(O)C(OC(=O)CSc4cccc(C)c4)C(C)O3)C(N(C)C)C2O)C(CC=O)CC(C)C(=O)C=CC(C)=CC1COC1OC(C)C(O)C(OC)C1OC (centres unmarked) [Compound 36, 4"-(3-methylphenyl)thioacetyltylosin] | 0.78 (≈ 0.722 µM) | 0.39 (≈ 0.361 µM) | 0.78 (≈ 0.722 µM) | 25 (≈ 23.1 µM) | 50 (≈ 46.3 µM) | 50 (≈ 46.3 µM) | 0.78 (≈ 0.722 µM) | 25 (≈ 23.1 µM) | – | – | – | – | – | – | – | –
6 | CCC1OC(=O)CC(O)C(C)C(OC2OC(C)C(OC3CC(C)(O)C(OC(=O)Cc4cccc5ccccc45)C(C)O3)C(N(C)C)C2O)C(CC=O)CC(C)C(=O)C=CC(C)=CC1COC1OC(C)C(O)C(OC)C1OC (stereo not drawn) [Compound 22, 4"-α-naphthylacetyltylosin] | 1.56 (≈ 1.44 µM) | 0.39 (≈ 0.36 µM) | 1.56 (≈ 1.44 µM) | 12.5 (≈ 11.5 µM) | 25 (≈ 23.1 µM) | 25 (≈ 23.1 µM) | 1.56 (≈ 1.44 µM) | 50 (≈ 46.1 µM) | – | – | – | – | – | – | – | –
7 | 4"-thienylacetyltylosin [Compound 30] | – | – | – | – | – | – | – | – | 0.39 | 0.19 | 0.39 | 12.5 | 25 | 25 | 0.39 | 6.25
